From the kinase profiling compilation of Christmann-Franck et al. (2016)

Legend:
Assay in all cases: KINOMEscan competition binding
Details in all cases: compound 10.0 µM
CDC2L2 (human) = CDC2L2 (human) (UniProt Q9UQ88)
[1] = molecular target: JAK1 JH2 pseudokinase (human) (UniProt P23458)
TSSK1B (human) = TSSK1B (human) (UniProt Q9BXA7)
[2] = tested on: PIK3CA (human), P42336 [E542K]
IKBKB (human) = IKBKB (human) (UniProt O14920)
CDK16 (human) = CDK16 (human) (UniProt Q00536)
EPHB3 (human) = EPHB3 (human) (UniProt P54753)
TAOK1 (human) = TAOK1 (human) (UniProt Q7L7X3)
[3] = tested on: RET (human), P07949 [V804L]
Chain of RET (human), P07949 [V804L] (P07949 whole entry V804L, looked up): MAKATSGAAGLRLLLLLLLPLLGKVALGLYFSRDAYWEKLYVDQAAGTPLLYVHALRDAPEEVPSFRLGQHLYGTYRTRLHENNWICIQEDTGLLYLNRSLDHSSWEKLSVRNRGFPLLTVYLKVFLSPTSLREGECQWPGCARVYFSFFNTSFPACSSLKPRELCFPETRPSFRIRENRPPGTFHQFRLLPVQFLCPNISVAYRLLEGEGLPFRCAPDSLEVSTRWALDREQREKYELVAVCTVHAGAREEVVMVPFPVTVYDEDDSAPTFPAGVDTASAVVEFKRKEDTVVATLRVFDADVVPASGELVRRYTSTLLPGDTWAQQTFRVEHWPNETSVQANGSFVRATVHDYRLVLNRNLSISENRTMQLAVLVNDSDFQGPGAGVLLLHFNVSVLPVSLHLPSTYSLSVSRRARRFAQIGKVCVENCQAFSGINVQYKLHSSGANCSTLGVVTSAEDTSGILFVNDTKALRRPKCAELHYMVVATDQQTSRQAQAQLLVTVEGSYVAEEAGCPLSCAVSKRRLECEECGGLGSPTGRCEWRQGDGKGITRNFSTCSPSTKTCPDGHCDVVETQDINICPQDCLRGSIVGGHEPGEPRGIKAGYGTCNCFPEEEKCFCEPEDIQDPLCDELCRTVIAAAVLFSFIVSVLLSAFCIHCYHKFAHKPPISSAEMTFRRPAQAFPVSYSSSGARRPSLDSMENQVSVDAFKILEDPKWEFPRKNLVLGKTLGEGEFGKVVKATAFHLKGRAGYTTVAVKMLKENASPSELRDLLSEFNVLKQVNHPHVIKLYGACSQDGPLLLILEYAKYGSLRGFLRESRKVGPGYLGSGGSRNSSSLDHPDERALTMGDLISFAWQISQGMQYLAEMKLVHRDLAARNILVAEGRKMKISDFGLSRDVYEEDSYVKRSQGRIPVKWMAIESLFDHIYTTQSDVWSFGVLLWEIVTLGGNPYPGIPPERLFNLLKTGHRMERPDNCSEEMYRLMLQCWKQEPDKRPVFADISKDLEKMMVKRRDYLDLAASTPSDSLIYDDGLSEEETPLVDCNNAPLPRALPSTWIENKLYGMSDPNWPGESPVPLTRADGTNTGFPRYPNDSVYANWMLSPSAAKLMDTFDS

CDK14 (human) = CDK14 (human) (UniProt O94921)
Chain of CDK14 (human) (O94921 whole entry, looked up): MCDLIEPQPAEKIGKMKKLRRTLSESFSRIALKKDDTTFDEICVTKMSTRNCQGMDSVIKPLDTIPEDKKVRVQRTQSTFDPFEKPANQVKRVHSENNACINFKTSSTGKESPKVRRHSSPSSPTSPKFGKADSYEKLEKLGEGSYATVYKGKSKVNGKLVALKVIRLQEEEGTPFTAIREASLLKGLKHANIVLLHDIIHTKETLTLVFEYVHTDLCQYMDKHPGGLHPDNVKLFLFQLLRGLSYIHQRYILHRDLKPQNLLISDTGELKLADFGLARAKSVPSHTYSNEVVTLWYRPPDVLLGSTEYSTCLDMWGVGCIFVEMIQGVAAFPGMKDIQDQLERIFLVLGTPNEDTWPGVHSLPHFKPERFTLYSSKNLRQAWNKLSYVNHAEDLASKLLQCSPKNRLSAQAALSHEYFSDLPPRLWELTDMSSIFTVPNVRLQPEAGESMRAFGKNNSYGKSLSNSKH

ICK (human) = ICK (human) (UniProt Q9UPZ9)
VRK2 (human) = VRK2 (human) (UniProt Q86Y07)
SGK3 (human) = SGK3 (human) (UniProt Q96BR1)
DYRK1B (human) = DYRK1B (human) (UniProt Q9Y463)
CASK (human) = CASK (human) (UniProt O14936)
MAP3K13 (human) = MAP3K13 (human) (UniProt O43283)
STK36 (human) = STK36 (human) (UniProt Q9NRP7)
CDK19 (human) = CDK19 (human) (UniProt Q9BWU1)
FGFR2 (human) = FGFR2 (human) (UniProt P21802)
MAPK3 (human) = MAPK3 (human) (UniProt P27361)
[4] = tested on: KIT (human), P10721 [V559D]
GSK3A (human) = GSK3A (human) (UniProt P49840)
Chain of GSK3A (human) (P49840 whole entry, looked up): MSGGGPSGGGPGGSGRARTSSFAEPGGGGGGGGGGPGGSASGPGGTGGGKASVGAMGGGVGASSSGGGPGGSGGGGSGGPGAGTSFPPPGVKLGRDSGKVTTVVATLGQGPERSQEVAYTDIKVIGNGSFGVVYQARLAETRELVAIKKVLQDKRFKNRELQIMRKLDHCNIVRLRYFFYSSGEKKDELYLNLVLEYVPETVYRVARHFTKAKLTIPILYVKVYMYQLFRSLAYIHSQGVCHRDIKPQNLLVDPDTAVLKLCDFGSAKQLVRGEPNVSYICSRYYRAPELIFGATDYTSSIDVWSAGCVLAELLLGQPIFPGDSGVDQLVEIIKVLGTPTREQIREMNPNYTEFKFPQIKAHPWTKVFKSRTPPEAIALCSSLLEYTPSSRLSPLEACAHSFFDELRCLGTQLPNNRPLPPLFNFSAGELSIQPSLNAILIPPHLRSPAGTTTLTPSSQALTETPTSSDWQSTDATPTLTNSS

STK17A (human) = STK17A (human) (UniProt Q9UEE5)
PRKCE (human) = PRKCE (human) (UniProt Q02156)
Chain of PRKCE (human) (Q02156 whole entry, looked up): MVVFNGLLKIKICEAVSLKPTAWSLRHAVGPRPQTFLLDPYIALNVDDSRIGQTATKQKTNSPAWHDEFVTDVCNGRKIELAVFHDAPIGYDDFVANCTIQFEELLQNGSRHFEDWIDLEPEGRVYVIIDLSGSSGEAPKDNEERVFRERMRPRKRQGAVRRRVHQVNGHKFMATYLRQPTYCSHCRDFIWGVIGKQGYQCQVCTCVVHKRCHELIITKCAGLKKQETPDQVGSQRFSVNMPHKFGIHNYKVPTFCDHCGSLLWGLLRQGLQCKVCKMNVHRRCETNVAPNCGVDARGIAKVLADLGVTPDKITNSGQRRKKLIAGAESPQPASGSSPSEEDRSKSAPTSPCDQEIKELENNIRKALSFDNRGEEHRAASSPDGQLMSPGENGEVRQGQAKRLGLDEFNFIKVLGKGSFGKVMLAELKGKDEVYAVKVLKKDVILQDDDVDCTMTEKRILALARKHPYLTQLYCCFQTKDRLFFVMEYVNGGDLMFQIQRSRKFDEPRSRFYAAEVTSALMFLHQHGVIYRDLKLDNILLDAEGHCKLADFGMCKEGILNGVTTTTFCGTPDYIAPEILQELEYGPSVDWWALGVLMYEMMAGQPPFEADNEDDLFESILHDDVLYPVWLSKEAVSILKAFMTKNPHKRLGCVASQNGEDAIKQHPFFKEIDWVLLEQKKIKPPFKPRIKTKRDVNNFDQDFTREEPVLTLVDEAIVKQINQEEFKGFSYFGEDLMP

MYO3B (human) = MYO3B (human) (UniProt Q8WXR4)
[5] = molecular target: JAK3 JH1 catalytic (human) (UniProt P52333)
NEK9 (human) = NEK9 (human) (UniProt Q8TD19)
ERBB3 (human) = ERBB3 (human) (UniProt P21860)
PI4KB (human) = PI4KB (human) (UniProt Q9UBF8)
MAP2K6 (human) = MAP2K6 (human) (UniProt P52564)
[6] = tested on: EIF2AK4 KD2 (human), Q9P2K8 [S808G]
SBK1 (human) = SBK1 (human) (UniProt Q52WX2)
[7] = tested on: RET (human), P07949 [V804M]
Chain of RET (human), P07949 [V804M] (P07949 whole entry V804M, looked up): as the sequence (P07949 whole entry V804L, looked up) above, with L804M counted along it

CDK15 (human) = CDK15 (human) (UniProt Q96Q40)
TRPM6 (human) = TRPM6 (human) (UniProt Q9BX84)
[8] = tested on: FLT3 (human), P36888 [ITD]
ITK (human) = ITK (human) (UniProt Q08881)
BMPR2 (human) = BMPR2 (human) (UniProt Q13873)
BMPR1B (human) = BMPR1B (human) (UniProt O00238)
CDK7 (human) = CDK7 (human) (UniProt P50613)
[9] = tested on: KIT (human), P10721 [D816H]

Chain of CDC2L2 (human) (Q9UQ88 whole entry, looked up): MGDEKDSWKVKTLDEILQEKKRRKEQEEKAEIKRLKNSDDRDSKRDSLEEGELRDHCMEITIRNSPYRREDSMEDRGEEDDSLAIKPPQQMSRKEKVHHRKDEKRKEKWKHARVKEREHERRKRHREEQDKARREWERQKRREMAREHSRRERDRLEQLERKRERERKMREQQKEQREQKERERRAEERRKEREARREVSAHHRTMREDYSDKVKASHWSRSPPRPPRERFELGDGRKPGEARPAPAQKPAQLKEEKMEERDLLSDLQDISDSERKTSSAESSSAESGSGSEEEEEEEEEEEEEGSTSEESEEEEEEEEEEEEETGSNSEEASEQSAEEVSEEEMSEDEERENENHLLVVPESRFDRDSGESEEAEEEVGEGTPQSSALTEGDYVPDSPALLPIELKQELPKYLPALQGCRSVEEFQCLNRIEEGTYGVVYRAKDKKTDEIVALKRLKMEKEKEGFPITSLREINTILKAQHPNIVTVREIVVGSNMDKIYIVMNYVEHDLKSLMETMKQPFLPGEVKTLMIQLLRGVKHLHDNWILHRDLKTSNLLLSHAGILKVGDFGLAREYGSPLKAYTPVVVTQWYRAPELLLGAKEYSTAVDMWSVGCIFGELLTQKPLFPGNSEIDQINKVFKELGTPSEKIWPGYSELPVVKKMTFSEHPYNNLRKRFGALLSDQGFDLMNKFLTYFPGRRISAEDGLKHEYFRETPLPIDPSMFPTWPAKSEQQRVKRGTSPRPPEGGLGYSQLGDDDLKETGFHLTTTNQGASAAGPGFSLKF
Chain of JAK1 JH2 pseudokinase (human) (P23458 whole entry, looked up): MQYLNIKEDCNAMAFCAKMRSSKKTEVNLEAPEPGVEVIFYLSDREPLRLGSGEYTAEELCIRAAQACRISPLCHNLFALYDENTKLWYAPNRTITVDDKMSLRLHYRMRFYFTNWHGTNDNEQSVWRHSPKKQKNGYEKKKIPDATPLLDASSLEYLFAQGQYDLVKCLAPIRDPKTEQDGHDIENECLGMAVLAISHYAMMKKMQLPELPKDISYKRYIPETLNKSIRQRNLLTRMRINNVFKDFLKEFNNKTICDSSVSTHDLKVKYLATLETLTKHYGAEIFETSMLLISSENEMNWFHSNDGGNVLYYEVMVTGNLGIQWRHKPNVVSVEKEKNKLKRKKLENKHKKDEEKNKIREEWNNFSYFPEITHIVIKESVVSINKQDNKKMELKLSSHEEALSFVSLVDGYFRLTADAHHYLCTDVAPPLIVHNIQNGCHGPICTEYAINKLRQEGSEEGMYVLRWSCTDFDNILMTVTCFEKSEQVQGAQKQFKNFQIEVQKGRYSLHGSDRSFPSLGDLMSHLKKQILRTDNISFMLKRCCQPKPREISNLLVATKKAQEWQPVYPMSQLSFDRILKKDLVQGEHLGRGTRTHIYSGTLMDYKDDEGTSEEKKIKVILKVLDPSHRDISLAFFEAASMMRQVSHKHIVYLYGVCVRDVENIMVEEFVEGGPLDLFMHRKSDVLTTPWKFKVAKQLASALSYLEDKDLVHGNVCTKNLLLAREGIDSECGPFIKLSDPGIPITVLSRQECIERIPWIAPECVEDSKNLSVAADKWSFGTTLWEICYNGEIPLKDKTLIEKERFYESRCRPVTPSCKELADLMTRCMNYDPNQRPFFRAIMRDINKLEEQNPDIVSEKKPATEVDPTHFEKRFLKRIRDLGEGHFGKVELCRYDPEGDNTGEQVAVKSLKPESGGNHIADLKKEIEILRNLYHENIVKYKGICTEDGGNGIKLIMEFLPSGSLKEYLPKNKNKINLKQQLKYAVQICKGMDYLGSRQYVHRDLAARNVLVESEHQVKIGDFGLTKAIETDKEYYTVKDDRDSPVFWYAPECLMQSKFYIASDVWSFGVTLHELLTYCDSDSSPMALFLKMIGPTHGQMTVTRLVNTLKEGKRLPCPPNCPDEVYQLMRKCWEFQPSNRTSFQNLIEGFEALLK

CCC(=O)N1CCN(c2ccc(-n3c(=O)ccc4cnc5ccc(-c6cnc7ccccc7c6)cc5c43)cc2C(F)(F)F)CC1
per cent of control (CDC2L2 (human)): 100% | kinase still bound, per cent of control [1]: 76% | kinase still bound, per cent of control (TSSK1B (human)): 100% | kinase still bound, per cent of control [2]: 1% | kinase still bound, per cent of control (IKBKB (human)): 61% | per cent of control (CDK16 (human)): 91% | kinase still bound, per cent of control (EPHB3 (human)): 85% | kinase still bound, per cent of control (TAOK1 (human)): 58% | kinase still bound, per cent of control [3]: 66% | per cent of control (CDK14 (human)): 99% | kinase still bound, per cent of control (ICK (human)): 100% | kinase still bound, per cent of control (VRK2 (human)): 100% | kinase still bound, per cent of control (SGK3 (human)): 100% | kinase still bound, per cent of control (DYRK1B (human)): 87% | kinase still bound, per cent of control (CASK (human)): 100% | kinase still bound, per cent of control (MAP3K13 (human)): 100% | kinase still bound, per cent of control (STK36 (human)): 17% | per cent of control (CDK19 (human)): 1.2% | kinase still bound, per cent of control (FGFR2 (human)): 55% | kinase still bound, per cent of control (MAPK3 (human)): 91% | kinase still bound, per cent of control [4]: 50% | kinase still bound, per cent of control (GSK3A (human)): 93% | kinase still bound, per cent of control (STK17A (human)): 93% | kinase still bound, per cent of control (PRKCE (human)): 86% | kinase still bound, per cent of control (MYO3B (human)): 100% | kinase still bound, per cent of control [5]: 100% | kinase still bound, per cent of control (NEK9 (human)): 100% | kinase still bound, per cent of control (ERBB3 (human)): 44% | kinase still bound, per cent of control (PI4KB (human)): 96% | kinase still bound, per cent of control (MAP2K6 (human)): 100% | kinase still bound, per cent of control [6]: 99% | kinase still bound, per cent of control (SBK1 (human)): 88% | kinase still bound, per cent of control [7]: 69% | per cent of control (CDK15 (human)): 88% | kinase still bound, per cent of control (TRPM6 (human)): 100% | kinase still bound, per cent of control [8]: 29% | kinase still bound, per cent of control (ITK (human)): 100% | kinase still bound, per cent of control (BMPR2 (human)): 85% | kinase still bound, per cent of control (BMPR1B (human)): 100% | per cent of control (CDK7 (human)): 57%

COc1ccc(-c2ccc3c(N4CCOCC4)nc(N4C[C@@H](C)O[C@@H](C)C4)nc3n2)cc1CO
per cent of control (CDC2L2 (human)): 100% | kinase still bound, per cent of control [9]: 100% | kinase still bound, per cent of control [1]: 100% | kinase still bound, per cent of control (TSSK1B (human)): 91% | kinase still bound, per cent of control [2]: 2.8% | kinase still bound, per cent of control (IKBKB (human)): 100% | per cent of control (CDK16 (human)): 100% | kinase still bound, per cent of control (EPHB3 (human)): 98% | kinase still bound, per cent of control (TAOK1 (human)): 83% | kinase still bound, per cent of control [3]: 100% | per cent of control (CDK14 (human)): 100% | kinase still bound, per cent of control (ICK (human)): 100% | kinase still bound, per cent of control (VRK2 (human)): 87% | kinase still bound, per cent of control (SGK3 (human)): 100% | kinase still bound, per cent of control (DYRK1B (human)): 85% | kinase still bound, per cent of control (CASK (human)): 100% | kinase still bound, per cent of control (MAP3K13 (human)): 100% | kinase still bound, per cent of control (STK36 (human)): 92% | per cent of control (CDK19 (human)): 73% | kinase still bound, per cent of control (FGFR2 (human)): 99% | kinase still bound, per cent of control (MAPK3 (human)): 100% | kinase still bound, per cent of control [4]: 90% | kinase still bound, per cent of control (GSK3A (human)): 100% | kinase still bound, per cent of control (STK17A (human)): 96% | kinase still bound, per cent of control (PRKCE (human)): 82% | kinase still bound, per cent of control (MYO3B (human)): 100% | kinase still bound, per cent of control [5]: 100% | kinase still bound, per cent of control (NEK9 (human)): 89% | kinase still bound, per cent of control (ERBB3 (human)): 85% | kinase still bound, per cent of control (PI4KB (human)): 100% | kinase still bound, per cent of control (MAP2K6 (human)): 83% | kinase still bound, per cent of control [6]: 66% | kinase still bound, per cent of control (SBK1 (human)): 100% | kinase still bound, per cent of control [7]: 94% | per cent of control (CDK15 (human)): 95% | kinase still bound, per cent of control (TRPM6 (human)): 50% | kinase still bound, per cent of control [8]: 100% | kinase still bound, per cent of control (ITK (human)): 88% | kinase still bound, per cent of control (BMPR2 (human)): 79% | kinase still bound, per cent of control (BMPR1B (human)): 99% | per cent of control (CDK7 (human)): 73%
